Patent US11911439B2, “Beta-casein A2 and prevention of inflammation of the bowel” (THE A2 MILK COMPANY LIMITED, priority 2013, dated 2024)
Where a SMILES comes first, the peptide text is derived from it.

Assays:
[1] = tested on: Caco-2 Gut epithelial cells; details: read-out: IC50 inhibition of cysteine uptake; GI epithelial cells
Procedure: (§1) Pre-treatment in cells was performed for different time points for 30 min, 4, 24 and 48 h as described previously (Trivedi M., et al.; Mol. Pharm., 2014). Briefly, SH-SY5Y human neuronal cells and Caco-2 Gut epithelial cells were plated in six-well plates and were pretreated with drugs and incubated for various times prior to measuring uptake. Media were aspirated and cells were washed with 600 μL of HBSS at 37° C. Non-radioactive HBSS was aspirated, replaced with 600 μL of 37° C. HBSS containing [^35S]-cysteine, (1 μCi/1 mL), 10 μM unlabelled cysteine and 100 μM DTT, and the cells were incubated for 5 min. The [^35S]-cysteine/HBSS mixture was aspirated and treatment was terminated by two washes with ice-cold HBSS. Cells were then lysed with 600 μL of dH2O, scraped, collected in 1.5 mL microcentrifuge tubes, and sonicated for 10 s. 100 μL of each sample was aliquoted for protein assay. 200 μL of each sample (in triplicate) was aliquoted into scintillation vials with 4 mL of scintillation fluid, vortexed, and counted for radioactivity, normalized against protein content. […] Each * symbol in these Figures indicates a statistically significant difference (p<0.05) compared against the untreated control, and each #symbol indicates a statistically significant difference (p<0.005) compared against the untreated control.

[2] = tested on: SH-SY5Y human neuronal cells
Procedure: as §1

SH-SY5Y neuronal cells = assay: Intracellular cysteine, GSH and methylation metabolites by HPLC; format: cell-based, human
Procedure: Briefly, SH-SY5Y neuronal cells were grown to confluence in α-MEM. Media was aspirated and the cells were washed twice with 1 mL of ice cold HBSS. HBSS was aspirated and 0.6 mL ice cold dH2O was added to the cells. The cells were scraped from the flask/dish and suspended in dH2O. The cell suspension was sonicated for 15 s on ice and 100 μL of the suspension was used to determine the protein content. The remaining lysate was added to a microcentrifuge tube and an equal volume of 0.4 N perchloric acid was added, followed by incubation on ice for 5 min. Samples were centrifuged at 5,000×g and the supernatant transferred to new microcentrifuge tubes. 100 μL of sample was added to a conical micro-autosampler vial and kept at 4° C. in the autosampler cooling tray. 10 μL of this sample was injected into the HPLC system.
The separation of redox and methylation pathway metabolites was accomplished using an Agilent Eclipse XDB-C8 analytical column (3×150 mm; 3.5 μm) and an Agilent Eclipse XDB-C8 (4.6×12.5 mm; 5 μm) guard column. Two mobile phases were used: Mobile Phase A was 0% acetonitrile, 25 mM sodium phosphate, 1.4 mM 1-octanesulfonic acid, adjusted to pH 2.65 with phosphoric acid. Mobile Phase B was 50% acetonitrile. The flow rate was initially set at 0.6 mL/min and a step gradient was used: 0-9 min 0% B, 9-19 min 50% B, 19-30 min 50% B. The column was then equilibrated with 5% B for 12 min prior to the next run. Temperature was maintained at 27° C. The electrochemical detector was an ESA CoulArray with BDD Analytical cell Model 5040 and the operating potential was set at 1500 mV. Sample concentrations were determined from the peak areas of metabolites using standard calibration curves and ESA-supplied HPLC software. Sample concentrations were normalised against protein content. In some cases samples were diluted in mobile phase as needed or up to 50 μl of sample was injected to assure that thiol levels were within the range of the standard curve.

SH-SY5Y cells [3] = assay: Global DNA methylation by MBD-seq; format: cell-based, human; details: after BCM-7 exposure
Procedure: (§2) The changes in SAM/SAH could potentially affect global DNA methylation, influencing the genes involved in various functions. The global DNA methylation levels induced by BCM-7 were investigated using methyl-CpG binding domain (MBD) protein-enriched genome sequencing (MBD-seq) as described previously (Trivedi M., et al., Mol. Pharm. 2014), whereas mRNA translation microarray data was obtained using Agilent V3 microarray chip, from non-treated control SH-SY5Y cells and cells treated for 4 hours with 1 μM BCM-7.
Briefly, genomic DNA was extracted from samples with the Easy DNA kit (Invitrogen K1800-01) using the appropriate protocol for cell lines. Fragmentation was performed on Covaris S2 with the following settings: duty cycle 10%, intensity 5, 200 cycles per burst during 200 sec. Fragments were obtained having an average length of 200 bp. […] DNA with an input from 5-3 3 μg was analysed on the Agilent 2100 using a DNA 1000 chip. […] The concentrations of fragmented and captured DNA were determined on a Fluostar Optima plate reader with the Quant-IT PicoGreen dsDNA Assay Kit (Invitrogen P7589) at 480/520 nm. […]
The Illumina library amplification index protocol was used with the following alterations: 22 μl DNA was used and performed 21 cycles run. […] 1 μl was applied to a Agilent 2100 HS DNA chip and the concentration was determined by smear analysis on the Agilent 2100. […]

SH-SY5Y cells [4] = assay: Whole genome mRNA microarray; format: cell-based, human; details: FDR<0.1; for differentially expressed transcripts (DETs): cells treated for 4 hours
Procedure: as §2
For whole genome microarray hybridisations, 500 ng of total RNA from each sample was labelled with fluorescent dye (Cy3; Amersham Biosciences Corp, Piscataway, NJ) using the Low RNA Input Linear Amplification Labelling kit (Agilent Technologies, Palo Alto, CA) following the manufacturer's protocol. The amount and quality of the fluorescently labelled cRNA was assessed using a NanoDrop ND-1000 spectrophotometer and an Agilent Bioanalyzer. According to manufacturer's specifications, […] of Cy3-labeled cRNA was hybridized to the Agilent Human Whole Genome Oligo Microarray (Agilent Technologies, Inc., Palo Alto, CA) for 17 hrs prior to washing and scanning. Data was extracted from scanned images using Feature Extraction Software (Agilent Technologies, Inc., Palo Alto, CA).
Transcripts included both genes and non-coding RNAs that were differentially methylated/transcribed.

[5] = tested on: colon myeloperoxidase (MPO) activity; assay: Colon MPO activity in rats fed A1/A2 diets; format: in vivo, Wistar rats
Procedure: (§3) Seventy two weaned (four week old) male Wistar rats were used. Following a 7-day acclimatisation period on a control diet, the rats were fed for either 12 or 60 hours with one of three diets: 100% A1 diet, 100% A2 diet, control diet (n=6 per treatment). The protein component of the diets were derived from skim milk (for the A1 and A2 diets) and on egg white (for the non-milk protein control diet), and were balanced for energy and macronutrient composition (see Table 1). Fifteen minutes before the end of the time period, rats received either naloxone or saline (control) via intra-peritoneal injection, and were then orally gavaged with a non-digestible tracer, titanium dioxide. Faecal and urine samples were collected at 7 time points over the following 24 hours, and stored at −20° C. (faecal) or −80° C. (urine) until they were analysed.
(§4) Colon tissue from the rats fed according to Example 1 was quantified for myeloperoxidase (MPO) activity based on an established method (Grisham, M. B., et al., Methods Enzymol., 1990, 186:729-742). Colon tissue (50 mg) was homogenised, partitioned via centrifugation, ruptured by ultrasonic probe and subjected to a freeze-thaw cycle. Endogenous MPO catalyses H2O2-dependent oxidation of 3,3′,5,5′-tetramethyl-benzidine substrate measured colourimetrically at 562 nm. […]

[6] = tested on: jejunum myeloperoxidase (MPO) activity; assay: Jejunum MPO activity in rats fed A1/A2 diets; format: in vivo, Wistar rats; details: on consumption of beta-casein A1
Procedure: as §3, §4
In this example, tissue samples taken from the jejunum were analysed. […]

colon tissue = assay: Intestinal histology of colon sections; format: in vivo, Wistar rats; details: 60 hour naloxone group, A2-fed versus A1-fed rats, P<0.05
Procedure: as §3
The procedure used for measuring change in morphology in the gastrointestinal tract of rats is based on histological evaluation of haemoxylin and eosin stained tissue sections under a light microscope (Knoch, B. et al., J. Nutrigenet. Nutrigenomics, 2009, 2(1):9-28 and Barnett, M. P., BMC Immunol., 2010, 11:39). This method was applied to sections derived from colon tissue of rats fed either the 100% A1 or 100% A2 diets to determine the effects of the beta-casein variants on intestinal inflammation.

[7] = neuronal cells, 30 min, 4 h, 24 h

Molecule: CC[C@H](C)[C@H](NC(=O)[C@@H]1CCCN1C(=O)CNC(=O)[C@@H]1CCCN1C(=O)[C@H](Cc1ccccc1)NC(=O)[C@@H]1CCCN1C(=O)[C@@H](N)Cc1ccc(O)cc1)C(=O)O [BCM-7, beta-casomorphin-7] (H-YPFPGPI-OH; N-terminus and C-terminus assumed)
- IC50 [1]: 15.9 nM
- receptor mediation of cysteine uptake inhibition ([2]; blockade by selective μ-antagonist (CTAP), not by delta antagonist (NTI)): μ-opioid receptor mediated
- time at which inhibition of cysteine uptake was fully developed ([2]; neuronal cells and GI epithelial cells (FIG. 6)): 30 min
- IC50 ([2]; read-out: IC50 inhibition of cysteine uptake, neuronal cells): 1.31 nM
- ratio of SAM/SAH (methylation capacity) (SH-SY5Y neuronal cells; different time points): affected
- GSH levels (SH-SY5Y neuronal cells; [7]): time-dependent decreases
- cysteine levels (SH-SY5Y neuronal cells; [7]): time-dependent decreases
- GSH/GSSG ratio (redox status) (SH-SY5Y neuronal cells; neuronal cells, over time): decreased
- epigenetic status (DNA methylation) of cytokines such as NFkappaB and interleukins such as IL1 (SH-SY5Y cells [3]): altered
- epigenetic status of the MPO gene (SH-SY5Y cells [3]): alters the epigenetic status
- DETs shared by both morphine and BCM-7 (SH-SY5Y cells [4]): 501
- differentially expressed transcripts (DETs) (SH-SY5Y cells [4]): 1,467

Molecule: CN1CC[C@]23c4c5ccc(O)c4O[C@H]2[C@@H](O)C=C[C@H]3[C@H]1C5 [morphine]
- cysteine levels (SH-SY5Y neuronal cells; [7]): time-dependent decreases
- DETs shared by both morphine and BCM-7 (SH-SY5Y cells [4]): 501
- differentially expressed transcripts (DETs) (SH-SY5Y cells [4]): 7,592

B1: beta-casein A1 (protein, UniProt P02666 16-224, looked up, variant P67H)
Beta-casein: RELEELNVPGEIVESLSSSEESITRINKKIEKFQSEEQQQTEDELQDKIHPFAQTQSLVYPFPGPIHNSLPQNIPPLTQTPVVVPPFLQPEVMGVSKVKEAMAPKHKEMPFPKYPVEPFTESQSLTLTDVENLHLPLPLLQSWMHQPHQPLPPTVMFPPQSVLSLSQSKVLPVPQKAVPYPQRDMPIQAFLLYQEPVLGPVRGPFPIIV
- colon MPO activity ([5]; beta-casein A1-fed rats compared to beta-casein A2-fed rats): increased
- effect on colon MPO activity in rats treated with naloxone ([5]; rats treated with naloxone): not observed
- inflammation in the small intestine (jejunum MPO) [6]: no observable increase

B2: beta-casein A2 (protein, UniProt P02666 16-224, looked up)
Beta-casein: RELEELNVPGEIVESLSSSEESITRINKKIEKFQSEEQQQTEDELQDKIHPFAQTQSLVYPFPGPIPNSLPQNIPPLTQTPVVVPPFLQPEVMGVSKVKEAMAPKHKEMPFPKYPVEPFTESQSLTLTDVENLHLPLPLLQSWMHQPHQPLPPTVMFPPQSVLSLSQSKVLPVPQKAVPYPQRDMPIQAFLLYQEPVLGPVRGPFPIIV
notes: any beta-casein having proline at position 67
- histology score (colon tissue): significantly higher score
